Assay results published in patent US5118791A, “Biologically active polypeptides based on transforming growth factor-β” (Genentech, Inc., priority 1991, dated 1992).
Where no end group is shown, it is not given here.

How the values were obtained:
Format in all cases: cell-based
[1] = tested on: Mu-1-Lv (ATCC CCL 64) mink lung epithelial-like cell; experiment: Inhibition of proliferation of cultured mink lung cells (3H-thymidine incorporation); conditions: CCL-64 mink lung cells, 24 hours, FIG. 1
Protocol: The cell line Mu-1-Lv (ATCC CCL 64, Rockville, MD), a mink lung epithelial-like cell, was used to detect TGF-β activity. Mul-1-Lv cells maintained by weekly passage in vitro in CMEM consisting of Eagle's minimum essential medium supplemented with 0.1 mM nonessential amino acids, 2 mM L-glutamine, 1 MM sodium pyruvate (Gibco, Grand Island, NY), and 10% heat-inactivated fetal bovine serum (FBC; HyClone Laboratoris, Logan, UT) were placed into 96-well flat-bottom microtiter plates (10,000/well; Falcon 3075) at a final volume of 200 μl/well. The plates were incubated at 37° C.+5% CO2 for 24 hours. During the last 4 hours of culture, 1 μCi of {3H} thymidine (20 μl/well, 5.0 Ci/mmol; Amersham Corp.) was added. After labeling, 100 μl/well of 10 x Trypsin-EDTA was added per well and the plates were incubated for an additional 15 min. at 37° C. Cells were harvested onto glass filters and counted in a liquid scintillation counter (LS 6800, Beckman, Fullerton, CA). Results (pg/ml of TGF-β) were calculated based on percent inhibition of thymidine incorporation compared with a rHuTGF-β1 laboratory standard.

human lymphocytes [2] = experiment: Inhibition of human lymphocyte proliferation in response to PMA; conditions: PMA 40 ng/ml, three days, dose-dependent, FIG. 5
human lymphocytes [3] = experiment: Inhibition of human lymphocyte proliferation in response to PHA-P; conditions: PHA-P 1 μg/ml, three days, dose-dependent, FIG. 6
human lymphocytes [4] = experiment: Inhibition of human lymphocyte proliferation in response to tetanus toxoid; conditions: tetanus toxoid 2 LF units/ml, six days, dose-dependent, FIG. 4
Protocol: The medium employed was complete RPMI-1640, i.e., RPMI-1640 (Gibco) supplemented with 10% human pooled AB serum (Hazelton Biologics Inc., Lenexa, KS), 100 u/ml penicillin/100 μg/ml streptomycin, 2 mM L-glutamine (Gibco), 1 mM sodium pyruvate (Gibco), 1% MEM non-essential amino acids (Gibco, 100x), 25 mM HEPES (Gibco), and 1% Nutridoma (Boehringer Manheim).
Heparinized venous blood (10 u/ml; bovine lung, Upjohn) was mixed with an equal volume of isotonic saline. Approximately 30 ml of the diluted blood was layered over 15 ml of lymphocyte separation medium (LSM, Organon Technika) in […] conical polypropylene centrifuge tubes (Falcon Plastics). The tubes were centrifuged for 40 min. at 400× g at 22° C. […]
To each of sextuplicate wells of a 96-well flat-bottom microtiter plate (Falcon Plastics) was added 100 μl of the cell suspension. […] The filter discs were dried and suspended in 2 ml of liquid scintillation cocktail (Econofluor, New England Nuclear) in mini-scintillation vials and incorporated radioactivity was determined by liquid scintillation spectrophotometry. Data were expressed as mean counts per min. of the quadruplicate samples, where the cpm of the media control was substrated from the cpm of the stimulated sample.

Row | Substance | cpm incorporated (activity) as a function of the reciprocal of dilution [1] | inhibition of proliferation of human lymphocytes in response to PMA (human lymphocytes [2]) | inhibition of proliferation of human lymphocytes in response to PHA-P (human lymphocytes [3]) | inhibition of proliferation of human lymphocytes in response to tetanus toxoid (human lymphocytes [4])
1 | CVRQLYIDFRKDLGWK [free polypeptide] | comparable, i.e., low at the low dilution level and high at the high dilution levels |  |  | 
2 | TGF-β1: mature, full-length transforming growth factor-β1 |  | also exhibits this dose-dependent effect | also exhibits this dose-dependent effect | also exhibits this dose-dependent effect
